Data on 7 compounds can be found in US10813354B2, “Herbicidal pyridazinone compounds” (SYNGENTA PARTICIPATIONS AG, priority 2016, dated 2020).

Common to all, as to type: in vivo
What all share (conditions): sprayed after 10 days cultivation, evaluated after 14 days

Series [1] deals with HORVW (Hordeum vulgare—barley). In words: Post-emergence glasshouse herbicide test, crop damage on barley. How it is done: (§1) Seeds of a variety of test species HORVW (Hordeum vulgare—barley), ABUTH (Abutilon theophrasti), AMARE (Amaranthus retroflexus) and ECHCG (Echinochloa crus-galli) were sown in standard soil in pots. After cultivation for 10 days cultivation under controlled conditions in a glasshouse (at 24/16° C., day/night; 14 hours light; 65% humidity), the plants were sprayed with an aqueous spray solution derived from the formulation of the technical active ingredient in 0.6 ml acetone and 45 ml formulation solution containing 10.6% Emulsogen EL (Registry number 61791-12-6), 42.2% N-methyl pyrrolidone, 42.2% dipropylene glycol monomethyl ether (CAS RN 34590-94-8) and 0.2% X-77 (CAS RN 11097-66-8).
(§2) The test plants were then grown in a glasshouse under controlled conditions in a glasshouse (at 24/16° C., day/night; 14 hours light; 65% humidity) and watered twice daily. After 14 days, the test was evaluated (100=total damage to plant; 0=no damage to plant).

In series [2] the test system is ECHCG (Echinochloa crus-galli). In words: Post-emergence glasshouse herbicide test on ECHCG. How it is done: as §1, §2
Series [3] concerns ABUTH (Abutilon theophrasti). In words: Post-emergence glasshouse herbicide test on ABUTH. As to the method:
as §1, §2

For series [4], the system named is AMARE (Amaranthus retroflexus). In words: Post-emergence glasshouse herbicide test on AMARE. As to the method: as §1, §2

Each structure is given as a SMILES string.

`COc1ccc(-n2nc(C)cc(C(=O)C3C(=O)C4CCC(C4)C3=O)c2=O)cc1OC` (centres unmarked) [Compound 1.1, 3-[2-(3,4-dimethoxyphenyl)-6-methyl-3-oxo-pyridazine-4-carbonyl]bicyclo[3.2.1]octane-2,4-dione]: the “HORVW damage to plant (100=total damage to plant; 0=no damage to plant)” value in series [1] (Rate 125 g/ha) and in series [1] (Rate 250 g/ha) was 0 in each case. Also, the “ECHCG damage to plant (100=total damage to plant; 0=no damage to plant)” value in series [2] (Rate 125 g/ha) and in series [2] (Rate 250 g/ha) was 100 throughout. Further, the “ABUTH damage to plant (100=total damage to plant; 0=no damage to plant)” value in series [3] (Rate 125 g/ha) and in series [3] (Rate 250 g/ha) was 100 in each case. Also, the “AMARE damage to plant (100=total damage to plant; 0=no damage to plant)” value in series [4] (Rate 125 g/ha) and in series [4] (Rate 250 g/ha) was 100 each time.
As to `COc1ccc(-n2nc(C)cc(C(=O)C3C(=O)CC(C)CC3=O)c2=O)cc1OC` (centres unmarked) [Compound 1.2], the “HORVW damage to plant (100=total damage to plant; 0=no damage to plant)” value in series [1] (Rate 125 g/ha) and in series [1] (Rate 250 g/ha) was 0 throughout. For the same compound, the “ECHCG damage to plant (100=total damage to plant; 0=no damage to plant)” value in series [2] (Rate 125 g/ha) and in series [2] (Rate 250 g/ha) was 100 each time. Moreover, the “ABUTH damage to plant (100=total damage to plant; 0=no damage to plant)” value in series [3] (Rate 125 g/ha) and in series [3] (Rate 250 g/ha) was 100 throughout. Moreover, the “AMARE damage to plant (100=total damage to plant; 0=no damage to plant)” value in series [4] (Rate 125 g/ha) and in series [4] (Rate 250 g/ha) was 100 in each case.
`COc1ccc(-n2nc(C)cc(C(=O)C3C(=O)CCCC3=O)c2=O)cc1OC` [Compound 1.3, 2-[2-(3,4-Dimethoxyphenyl)-6-methyl-3-oxo-pyridazine-4-carbonyl]cyclohexane-1,3-dione]: the “HORVW damage to plant (100=total damage to plant; 0=no damage to plant)” value in series [1] (Rate 125 g/ha) and in series [1] (Rate 250 g/ha) was 0 each time. The “ECHCG damage to plant (100=total damage to plant; 0=no damage to plant)” value in series [2] (Rate 125 g/ha) and in series [2] (Rate 250 g/ha) was 100 throughout. In addition, the “ABUTH damage to plant (100=total damage to plant; 0=no damage to plant)” value in series [3] (Rate 125 g/ha) and in series [3] (Rate 250 g/ha) was 100 throughout. Besides, the “AMARE damage to plant (100=total damage to plant; 0=no damage to plant)” value in series [4] (Rate 125 g/ha) and in series [4] (Rate 250 g/ha) was 100 each time.
In the case of `COc1ccc(-n2nc(C)cc(C(=O)C3C(=O)CC(C)(C)CC3=O)c2=O)cc1OC` [Compound 1.4], the results for the “HORVW damage to plant (100=total damage to plant; 0=no damage to plant)” value in series [1] (Rate 125 g/ha) and in series [1] (Rate 250 g/ha) were 0 and 10, respectively. Also, the “ECHCG damage to plant (100=total damage to plant; 0=no damage to plant)” value in series [2] (Rate 125 g/ha) and in series [2] (Rate 250 g/ha) was 100 throughout. Also, the “ABUTH damage to plant (100=total damage to plant; 0=no damage to plant)” value in series [3] (Rate 125 g/ha) and in series [3] (Rate 250 g/ha) was 100 throughout. The “AMARE damage to plant (100=total damage to plant; 0=no damage to plant)” value in series [4] (Rate 125 g/ha) and in series [4] (Rate 250 g/ha) was 100 in each case.
In the case of `COc1ccc(-n2nc(C)cc(C(=O)C3C(=O)C(C)(C)C(=O)C(C)(C)C3=O)c2=O)cc1OC` [Compound 1.5], the “HORVW damage to plant (100=total damage to plant; 0=no damage to plant)” value in series [1] (Rate 125 g/ha) and in series [1] (Rate 250 g/ha) was 0 each time. Further, the “ECHCG damage to plant (100=total damage to plant; 0=no damage to plant)” value in series [2] (Rate 125 g/ha) and in series [2] (Rate 250 g/ha) was 90 throughout. The “ABUTH damage to plant (100=total damage to plant; 0=no damage to plant)” value in series [3] (Rate 125 g/ha) and in series [3] (Rate 250 g/ha) was 100 throughout. Moreover, the “AMARE damage to plant (100=total damage to plant; 0=no damage to plant)” value in series [4] (Rate 125 g/ha) and in series [4] (Rate 250 g/ha) was 100 each time.
Regarding `COc1ccc(-n2nc(C3CC3)cc(C(=O)C3C(=O)C4CCC(C4)C3=O)c2=O)cc1OC` (centres unmarked) [Compound 1.9], the “HORVW damage to plant (100=total damage to plant; 0=no damage to plant)” value in series [1] (Rate 125 g/ha) was determined as 0; in series [1] (Rate 250 g/ha), 10. Moreover, the “ECHCG damage to plant (100=total damage to plant; 0=no damage to plant)” value in series [2] (Rate 125 g/ha) and in series [2] (Rate 250 g/ha) was 100 in each case. Besides, the “ABUTH damage to plant (100=total damage to plant; 0=no damage to plant)” value in series [3] (Rate 125 g/ha) and in series [3] (Rate 250 g/ha) was 100 throughout. In addition, the “AMARE damage to plant (100=total damage to plant; 0=no damage to plant)” value is given as 90 in series [4] (Rate 125 g/ha) and 100 in series [4] (Rate 250 g/ha).
For the compound `COc1ccc(-n2nc(C3CC3)cc(C(=O)C3C(=O)C(C)(C)C(=O)C(C)(C)C3=O)c2=O)cc1OC` [Compound 1.11, 6-[6-cyclopropyl-2-(3,4-dimethoxyphenyl)-3-oxo-pyridazine-4-carbonyl]-2,2,4,4-tetramethyl-cyclohexane-1,3,5-trione], the “HORVW damage to plant (100=total damage to plant; 0=no damage to plant)” value in series [1] (Rate 125 g/ha) and in series [1] (Rate 250 g/ha) was 0 each time. For the same compound, the “ECHCG damage to plant (100=total damage to plant; 0=no damage to plant)” value in series [2] (Rate 125 g/ha) and in series [2] (Rate 250 g/ha) was 100 each time. Besides, the “ABUTH damage to plant (100=total damage to plant; 0=no damage to plant)” value in series [3] (Rate 125 g/ha) and in series [3] (Rate 250 g/ha) was 100 in each case. Moreover, the “AMARE damage to plant (100=total damage to plant; 0=no damage to plant)” value in series [4] (Rate 125 g/ha) and in series [4] (Rate 250 g/ha) was 100 in each case.
